In EP4768499A1, “MACROCYCLIC PEPTIDE COMPOUND HAVING CELL MEMBRANE PERMEABILITY AND METABOLIC STABILITY, AND LIBRARY CONTAINING SAME” (Chugai Seiyaku Kabushiki Kaisha, priority 2023, dated 2025):
Like-named read-outs stand apart in the source and are kept apart here. Starred links: 1 amine or outer side, 2 acyl side, 3 side chain; linkers in the order of their positions; H or OH if unused. Non-standard residues stand in square brackets, D forms with d. Residues, ends and D or L forms follow the SMILES beside them. *: point of attachment. NMedβ3hAla = C[C@H](CC(=O)[*:2])N(C)[*:1]; NMeF = CN[C@@H](Cc1ccccc1)C(=O)O; NMeI = CC[C@H](C)[C@H](NC)C(=O)O; NMeT = CN[C@H](C(=O)O)[C@@H](C)O; hPhe = N[C@@H](CCc1ccccc1)C(=O)O; NMeβAla = CN(CCC(=O)[*:2])[*:1]; NMeL = CN[C@@H](CC(C)C)C(=O)O; NMeV = CN[C@H](C(=O)O)C(C)C; d(β3hA) = C[C@@H](N)CC(=O)O; NMeAbu = CC[C@H](NC)C(=O)O; Abu = CC[C@H](N)C(=O)O; Sar = CNCC(=O)O; tBu = CC(C)(C)*

Columns and labels:
[1] = Mouse PK test: plasma concentration after intravenous or oral administration; assay type: in vivo, mice (C57BL/6J); conditions: C57BL/6J
Procedure: We evaluated the plasma concentration changes after intravenous or oral administration of four types of peptides that satisfy these conditions to mice.
To male mice (C57BL/6J, 10 weeks old, purchased from Charles River Laboratories Japan, Inc.: 3 mice per group), the compound was administered intravenously at a dose of 1 mg/kg or orally at a dose of 50 mg/kg, and blood was collected from the jugular vein over time up to 24 hours after administration. The collected blood was dispensed into tubes that were pre-treated with heparin as an anticoagulant. Plasma was separated from the blood by centrifugation, and after deproteinization with acetonitrile, the plasma concentration of the compound was measured with an LC/MS/MS device (XEVO TQ-XS, manufactured by Waters Corporation).

[2] = test system: Caco-2 cells; test: Membrane permeability test using Caco-2 cells with preincubation; assay type: in vitro ADME
[3] = as above; assay type: in vitro ADME; conditions: Caco-2
[4] = Metabolic stability test: liver microsomal stability assay; assay type: in vitro ADME, mouse; conditions: for microsomal CLint at 1 µM: male, pH 7.4, presence of NADPH, read-out: Mouse Hepatic Microsome CLh,int NADPH(+)
[5] = plasma, male mice, intravenous administration, 1 mg/kg, read-out: AUCinf
[6] = plasma, male mice, intravenous administration, 1 mg/kg, read-out: CL
[7] = plasma, male mice, intravenous administration, 1 mg/kg, read-out: Vss
[8] = plasma, male mice, intravenous administration, 1 mg/kg, read-out: t1/2 (converted)
[9] = plasma, male mice, oral 50 mg/kg vs intravenous 1 mg/kg, bioavailability, read-out: F
[10] = plasma, male mice, oral administration, 50 mg/kg, read-out: AUCinf
[11] = plasma, male mice, oral administration, 50 mg/kg, read-out: Cmax
[12] = plasma, male mice, oral administration, 50 mg/kg, read-out: Tmax
[13] = plasma, male mice, oral administration, 50 mg/kg, read-out: t1/2 (converted)
[14] = Caco-2 cells, preincubation 20 to 24 hours, apical FaSSIF/HBSS 1% DMSO pH 6.0, basal HBSS 4% BSA pH 7.4, basal sample at 180 minutes
[15] = preincubation 20 to 24 hours, Apical FaSSIF/HBSS pH 6.0, Basal HBSS 4% BSA pH 7.4, 180 minutes, read-out: Caco2 Papp
[16] = mouse liver microsomes 0.5 mg protein/mL, compound 1 µM
[17] = mouse liver microsomes 0.5 mg protein/mL, compound 1 µM, absence of NADPH

AUC(0-inf) [1, 5] [ng·h/mL]	clearance [1, 6] [mL/min/kg]	Vd [1, 7] [L/kg]	half-life [1, 8] [h]	bioavailability [1, 9] [%]	AUC(0-inf) [1, 10] [ng·h/mL]	Cmax [1, 11] [ng/mL]	Tmax [1, 12] [h]	half-life [1, 13] [h]	Caco2 Papp (10^-6 cm/sec) [2, 14]	Papp A→B [3, 15] [×10⁻⁶ cm/s]	microsomal CLint at 1 µM [4, 16] [µL/min/mg]	Mouse Hepatic Microsome CLh,int NADPH(-) [4, 17] [µL/min/mg Protein]	SMILES	also measured
1200	14	11	12	33	20000	2200	2.7	6.6	1.16 10^-6 cm/sec	1.16	50.4	44.8	CC[C@H](C)[C@@H]1NC(=O)[C@H](CC(C)C)N(C)C(=O)C[C@@H](C)NC(=O)[C@H](C(C)C)N(C)C(=O)[C@H](COC(C)(C)C)NC(=O)[C@H](CC)N(C)C(=O)[C@H](Cc2ccccc2)N(C)C(=O)[C@H](CC(C)C)NC(=O)[C@@H]2CCCN2C(=O)[C@H]([C@@H](C)O)N(C)C(=O)[C@H](CC(C)C)N(C)C(=O)[C@H](CC)N(C)C(=O)[C@H](C(C)C)NC(=O)[C@H](CC(C)C)N(C)C1=O [pd057] (cyclo(I[NMeL]V[NMeAbu][NMeL][NMeT]PL[NMeF][NMeAbu]S(tBu)[NMeV][d(β3hA)][NMeL]))	
10000	1.7	0.81	6.4	16	79000	7000	1.7	7.6	1.95 10^-6 cm/sec	1.95	39.5	28.4	CC[C@@H]1NC(=O)[C@H](CC(C)C)N(C)C(=O)[C@H]([C@@H](C)CC)NC(=O)[C@H](CC(C)C)N(C)C(=O)C[C@@H](C)NC(=O)[C@H](C(C)C)N(C)C(=O)[C@H](CC(C)C)NC(=O)[C@H](CC)N(C)C(=O)[C@H](Cc2ccccc2)N(C)C(=O)[C@@H]2CCCN2C(=O)[C@H](CC(C)C)NC(=O)[C@H]([C@@H](C)O)N(C)C(=O)[C@H](CC(C)C)N(C)C1=O [pd135] (cyclo([Abu][NMeL][NMeT]LP[NMeF][NMeAbu]L[NMeV][d(β3hA)][NMeL]I[NMeL]))	
													CC[C@H](C)[C@H]1C(=O)N[C@@H](CC(C)C)C(=O)N(C)CC(=O)N(C)[C@@H](CC(C)C)C(=O)N[C@@H](CC(C)C)C(=O)N(C)[C@H](C)CC(=O)N(C)[C@@H](CC(C)C)C(=O)N(C)CCC(=O)N(C)[C@@H](CC(C)C)C(=O)N[C@@H](COC(C)(C)C)C(=O)N(C)[C@@H](Cc2ccccc2)C(=O)N(C)CCC(=O)N(C)[C@@H](Cc2ccccc2)C(=O)N1C [pd144] (cyclo(L[Sar][NMeL]L[NMedβ3hAla][NMeL][NMeβAla][NMeL]S(tBu)[NMeF][NMeβAla][NMeF][NMeI]))	AUC(0-inf) ([1]; male, in vivo, iv, 1 mg/kg): 3500 ng·h/mL; Vd ([1]; male, in vivo, iv, 1 mg/kg): 1.6 L/kg; clearance ([1]; male, in vivo, iv, 1 mg/kg): 4.9 mL/min/kg; half-life ([1]; male, in vivo, iv, 1 mg/kg): 5.3 h; bioavailability ([1]; male, in vivo, po): 40%; AUC(0-inf) ([1]; male, in vivo, po, 50 mg/kg): 71000 ng·h/mL; Cmax ([1]; male, in vivo, po, 50 mg/kg): 7000 ng/mL; Tmax ([1]; male, in vivo, po, 50 mg/kg): 1.3 h; half-life ([1]; male, in vivo, po, 50 mg/kg): 9.7 h; Caco2 Papp (10^-6 cm/sec) ([2]; Caco-2): 1.28 10^-6 cm/sec; Papp A→B [3]: 1.28 ×10⁻⁶ cm/s; Mouse Hepatic Microsome CLh,int NADPH(-) [4]: 34.0 µL/min/mg Protein

SMILES	AUC(0-inf) [1, 5] [ng·h/mL]	clearance [1, 6] [mL/min/kg]	Vd [1, 7] [L/kg]	half-life [1, 8] [h]	bioavailability [1, 9] [%]	AUC(0-inf) [1, 10] [ng·h/mL]	Cmax [1, 11] [ng/mL]	Tmax [1, 12] [h]	half-life [1, 13] [h]	Caco2 Papp (10^-6 cm/sec) [2, 14]	Papp A→B [3, 15] [×10⁻⁶ cm/s]	microsomal CLint at 1 µM [4, 16] [µL/min/mg]	Mouse Hepatic Microsome CLh,int NADPH(-) [4, 17] [µL/min/mg Protein]	also measured
CC[C@@H]1NC(=O)[C@H](CC(C)C)N(C)C(=O)[C@H](COC(C)(C)C)NC(=O)[C@H]([C@@H](C)CC)N(C)C(=O)[C@H](CCc2ccccc2)NC(=O)[C@H](Cc2ccccc2)N(C)C(=O)[C@H](C(C)C)NC(=O)[C@H](CC(C)C)N(C)C(=O)[C@H](CC(C)C)NC(=O)CCN(C)C(=O)C[C@@H](C)N(C)C(=O)CN(C)C(=O)[C@H](CC(C)C)N(C)C(=O)[C@@H]2CCCN2C1=O [pd065] (cyclo([Abu]P[NMeL][Sar][NMedβ3hAla][NMeβAla]L[NMeL]V[NMeF][hPhe][NMeI]S(tBu)[NMeL]))										0.54 10^-6 cm/sec	0.54	41.7	40.2	AUC(0-inf) ([1]; in vivo, male mice, intravenous administration, 1 mg/kg, read-out: AUCinf): 8700 ng·h/mL; clearance ([1]; in vivo, male mice, intravenous administration, 1 mg/kg, read-out: CL): 1.9 mL/min/kg; Vd ([1]; in vivo, male mice, intravenous administration, 1 mg/kg, read-out: Vss): 0.57 L/kg; half-life ([1]; in vivo, male mice, intravenous administration, 1 mg/kg, read-out: t1/2 (converted)): 5.4 h; bioavailability ([1]; in vivo, male mice, oral 50 mg/kg vs intravenous 1 mg/kg, bioavailability, read-out: F): 26%; AUC(0-inf) ([1]; in vivo, male mice, oral administration, 50 mg/kg, read-out: AUCinf): 110000 ng·h/mL; Cmax ([1]; in vivo, male mice, oral administration, 50 mg/kg, read-out: Cmax): 11000 ng/mL; Tmax ([1]; in vivo, male mice, oral administration, 50 mg/kg, read-out: Tmax): 2.7 h; half-life ([1]; in vivo, male mice, oral administration, 50 mg/kg, read-out: t1/2 (converted)): 5.8 h
